Data as given in US7319101B2, “COMT inhibitors for the treatment of depression and impaired cognition” (Hoffmann-La Roche Inc., priority 2003, dated 2008).

biological target: T1, catechol-O-methyltransferase (COMT) obtained from rat liver (Rattus norvegicus, UniProt P22734); test: COMT inhibition, radiochemical assay with rat liver homogenate (Zürcher et al.); assay type: biochemical; conditions: rat liver tissue extract; substrate benzene-1,2-diol 2.5 mM, [3H]SAM 183 μM; 15 min preincubation at 37° C., pH 7.6
T1 construct: from tissue; host or cells: rat liver homogenate
T1 sequence (P22734 1-264): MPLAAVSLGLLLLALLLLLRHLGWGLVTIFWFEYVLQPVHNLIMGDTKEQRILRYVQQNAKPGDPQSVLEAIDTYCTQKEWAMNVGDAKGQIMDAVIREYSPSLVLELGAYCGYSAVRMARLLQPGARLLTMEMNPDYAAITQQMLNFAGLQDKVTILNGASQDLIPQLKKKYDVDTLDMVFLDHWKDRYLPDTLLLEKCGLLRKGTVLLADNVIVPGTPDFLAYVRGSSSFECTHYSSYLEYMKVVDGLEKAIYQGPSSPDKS
Method: The inhibitory activity can be determined in vitro with COMT obtained from rat liver. Rat liver homogenate is incubated in the presence of a suitable substrate as described by Zürcher et al. in J. Neurochem. 1982, 38, 191-195 and the COMT activity is measured.
IC50 values were determined as follows: The inhibitors were dissolved in Me2SO as 1.2 mM stock solution and further diluted with Me2SO. The reactions were performed in standard polypropylene vials. 25 μl of the inhibitor in varying concentrations from 10^−4 to 10^−9 mol L^−1 were mixed with 215 μl freshly prepared buffer-substrate mixture consisting of 170 μl potassium phosphate buffer (0.1 mol L^−1, pH 7.6), 10 μl MgCl2, (0.1 mol L^−1), 10 μl dithiothreitol (0.065 mol L^−1) and 25 μl of tissue extract. The enzyme preparations were preincubated for 15 min at 37° C. The reaction was started by adding 30 μl substrate (benzene-1,2-diol, 0.025 mol L^−1), 10 μl [^3H]SAM (5.5 mmol L^−1, specific activity: 13.36 Bq mol^−1 (3.61 Cimol^−1) and 20 μl deionized H2O, reaching a final substrate concentration of 2.5 mM and a final [^1H]/[^3H]SAM concentration of 183 μM. The reaction was stopped after incubating the vials in a water-bath at 37° C. for 15 min by addition of 200 μl HOAc (5.7%) containing guaiacol (0.1 g L^−1). The reaction vessels were transferred into polyethylene scintillation vials and 3 ml of scintillation fluid (5 g butyl-PBD, dissolved in 200 ml toluene, made up to 1 L with n-hexane) was added.
The samples were counted in a Beckmann LS 6000 TA scintillation counter.

**Q.** Which IC50 does the source give for Nc1ncnc2c1ncn2[C@@H]1O[C@H](/C=C/CNC(=O)c2cccc(O)c2O)C(O)C1O (stereo in doubt) [Example 1, N1-{(E)-3-[(3aR,4R,6R,6aR)-5-(6-amino-9H-purin-9-yl)-3,4-dihydroxytetrahydrofuran-2-yl]prop-2-enyl}-2,3-dihydroxy-benzamide] here?
**A.** Its IC50 is 2600 nM.

**Q.** Which IC50 does the source give for Nc1ncnc2c1ncn2[C@@H]1O[C@H](/C=C/CNC(=O)c2cc(Br)cc(O)c2O)C(O)C1O (stereo in doubt) [Example 2, N1-{(E)-3-[(3aR,4R,6R,6aR)-5-(6-amino-9H-purin-9-yl)-3,4-dihydroxytetrahydrofuran-2-yl]prop-2-enyl}-5-bromo-2,3-dihydroxy-benzamide] here?
**A.** Its IC50 is 28 nM.

**Q.** With N#Cc1cc(O)c(O)c(C(=O)NC/C=C/[C@H]2O[C@@H](n3cnc4c(N)ncnc43)C(O)C2O)c1 (stereo in doubt) [Example 3, N1-{(E)-3-[(3aR,4R,6R,6aR)-5-(6-amino-9H-purin-9-yl)-3,4-dihydroxytetrahydrofuran-2-yl]prop-2-enyl}-5-cyano-2,3-dihydroxy-benzamide] as the molecule, how does the IC50 read?
**A.** Its IC50 is 29 nM.

**Q.** Which IC50 does the source give for Nc1ncnc2c1ncn2[C@@H]1O[C@H](/C=C/CNC(=O)c2cc(C(=O)C(F)(F)F)cc(O)c2O)C(O)C1O (stereo in doubt) [Example 4, N1-{(E)-3-[(3aR,4R,6R,6aR)-5-(6-amino-9H-purin-9-yl)-3,4-dihydroxytetrahydrofuran-2-yl]prop-2-enyl}-5-(2,2,2-trifluoro-acetyl)-2,3-dihydroxy-benzamide] here?
**A.** Its IC50 is 39 nM.

**Q.** Which IC50 does the source give for Nc1ncnc2c1ncn2[C@@H]1O[C@H](/C=C/CNC(=O)c2cc(C(=O)c3ccncc3)cc(O)c2O)C(O)C1O (stereo in doubt) [Example 5, N1-{(E)-3-[(3aR,4R,6R,6aR)-5-(6-amino-9H-purin-9-yl)-3,4-dihydroxytetrahydrofuran-2-yl]prop-2-enyl}-5-(pyridine-4-carbonyl)-2,3-dihydroxy-benzamide] here?
**A.** Its IC50 is 42 nM.

**Q.** Which IC50 does the source give for Nc1ncnc2c1ncn2[C@@H]1O[C@H](/C=C/CNC(=O)c2cc(C(=O)C3CCCCC3)cc(O)c2O)C(O)C1O (stereo in doubt) [Example 6, N1-{(E)-3-[(3aR,4R,6R,6aR)-5-(6-amino-9H-purin-9-yl)-3,4-dihydroxytetrahydrofuran-2-yl]prop-2-enyl}-5-cyclohexanecarbonyl-2,3-dihydroxy-benzamide] here?
**A.** The IC50 was 83 nM.

**Q.** For Nc1ncnc2c1ncn2[C@@H]1O[C@H](/C=C/CNC(=O)c2cc(Cl)cc(O)c2O)C(O)C1O (stereo in doubt) [Example 7, N1-{(E)-3-[(3aR,4R,6R,6aR)-5-(6-amino-9H-purin-9-yl)-3,4-dihydroxytetrahydrofuran-2-yl]prop-2-enyl}-5-chloro-2,3-dihydroxy-benzamide], which IC50 is on record?
**A.** The IC50 was 44 nM.

**Q.** With Nc1ncnc2c1ncn2[C@@H]1O[C@H](/C=C/CNC(=O)c2cc(-c3ccc(F)cc3)cc(O)c2O)C(O)C1O (stereo in doubt) [Example 8, N1-{(E)-3-[(3aR,4R,6R,6aR)-5-(6-amino-9H-purin-9-yl)-3,4-dihydroxytetrahydrofuran-2-yl]prop-2-enyl}-5-(4-fluoro-phenyl)-2,3-dihydroxy-benzamide] as the molecule, how does the IC50 read?
**A.** Its IC50 is 21 nM.

**Q.** Which IC50 does the source give for Cc1ccc(-c2cc(O)c(O)c(C(=O)NC/C=C/[C@H]3O[C@@H](n4cnc5c(N)ncnc54)C(O)C3O)c2)cc1 (stereo in doubt) [Example 9, N1-{(E)-3-[(3aR,4R,6R,6aR)-5-(6-amino-9H-purin-9-yl)-3,4-dihydroxytetrahydrofuran-2-yl]prop-2-enyl}-5-p-tolyl-2,3-dihydroxy-benzamide] here?
**A.** Its IC50 is 23 nM.

**Q.** For Nc1ncnc2c1ncn2[C@@H]1O[C@H](/C=C/CNC(=O)c2cc(-c3nccs3)cc(O)c2O)C(O)C1O (stereo in doubt) [Example 10, N1-{(E)-3-[(3aR,4R,6R,6aR)-5-(6-amino-9H-purin-9-yl)-3,4-dihydroxytetrahydrofuran-2-yl]prop-2-enyl}-5-thiazol-2-yl-2,3-dihydroxy-benzamide], which IC50 is on record?
**A.** The IC50 was 27 nM.

**Q.** With Nc1ncnc2c1ncn2[C@@H]1O[C@H](/C=C/CNC(=O)c2cc(-c3ccncc3)cc(O)c2O)C(O)C1O (stereo in doubt) [Example 12, N1-{(E)-3-[(3aR,4R,6R,6aR)-5-(6-amino-9H-purin-9-yl)-3,4-dihydroxytetrahydrofuran-2-yl]prop-2-enyl}-5-pyridin-4-yl-2,3-dihydroxy-benzamide] as the molecule, how does the IC50 read?
**A.** Its IC50 is 23 nM.

**Q.** With Cc1ccc(Cc2cc(O)c(O)c(C(=O)NC/C=C/[C@H]3O[C@@H](n4cnc5c(N)ncnc54)C(O)C3O)c2)cc1 (stereo in doubt) [Example 13, N1-{(E)-3-[(3aR,4R,6R,6aR)-5-(6-amino-9H-purin-9-yl)-3,4-dihydroxytetrahydrofuran-2-yl]prop-2-enyl}-5-(4-methyl-benzyl)-2,3-dihydroxy-benzamide] as the molecule, how does the IC50 read?
**A.** Its IC50 is 608 nM.

**Q.** Which IC50 does the source give for CN(C)C(=O)c1cc(O)c(O)c(C(=O)NC/C=C/[C@H]2O[C@@H](n3cnc4c(N)ncnc43)C(O)C2O)c1 (stereo in doubt) [Example 14, N1-{(E)-3-[(3aR,4R,6R,6aR)-5-(6-amino-9H-purin-9-yl)-3,4-dihydroxytetrahydrofuran-2-yl]prop-2-enyl}-5-dimethylcarbamoyl-2,3-dihydroxy-benzamide] here?
**A.** Its IC50 is 2000 nM.

**Q.** For CN(C)C(=O)/C=C/c1cc(O)c(O)c(C(=O)NC/C=C/[C@H]2O[C@@H](n3cnc4c(N)ncnc43)C(O)C2O)c1 (stereo in doubt) [Example 15, N1-{(E)-3-[(3aR,4R,6R,6aR)-5-(6-amino-9H-purin-9-yl)-3,4-dihydroxytetrahydrofuran-2-yl]prop-2-enyl}-5-((E)-2-dimethylcarbamoyl-vinyl)-2,3-dihydroxy-benzamide], which IC50 is on record?
**A.** Its IC50 is 97 nM.

**Q.** For Nc1ncnc2c1ncn2[C@@H]1O[C@H](/C=C/CNC(=O)c2cc(C(F)(F)F)cc(O)c2O)C(O)C1O (stereo in doubt) [Example 16, N1-{(E)-3-[(3aR,4R,6R,6aR)-5-(6-amino-9H-purin-9-yl)-3,4-dihydroxytetrahydrofuran-2-yl]prop-2-enyl}-5-trifluoromethyl-2,3-dihydroxy-benzamide], which IC50 is on record?
**A.** The IC50 was 35 nM.

**Q.** With Cc1ccc(S(=O)(=O)c2cc(O)c(O)c(C(=O)NC/C=C/[C@H]3O[C@@H](n4cnc5c(N)ncnc54)C(O)C3O)c2)cc1 (stereo in doubt) [Example 18, N1-{(E)-3-[(3aR,4R,6R,6aR)-5-(6-amino-9H-purin-9-yl)-3,4-dihydroxytetrahydrofuran-2-yl]prop-2-enyl}-5-(toluene-4-sulfonyl)-2,3-dihydroxy-benzamide] as the molecule, how does the IC50 read?
**A.** Its IC50 is 213 nM.

**Q.** With Cc1ccc(C(=O)c2cc(O)c(O)c(C(=O)NC/C=C/[C@H]3O[C@@H](n4cnc5c(N)ncnc54)C(O)C3O)c2)cc1 (stereo in doubt) [Example 19, N1-{(E)-3-[(3aR,4R,6R,6aR)-5-(6-amino-9H-purin-9-yl)-3,4-dihydroxy-tetrahydrofuran-2-yl]prop-2-enyl}-5-(4-methyl-benzoyl)-2,3-dihydroxy-benzamide] as the molecule, how does the IC50 read?
**A.** The IC50 was 34 nM.

**Q.** For Nc1ncnc2c1ncn2C1OC(C=CCNC(=O)c2cc([N+](=O)[O-])cc(O)c2O)C(O)C1O (stereo not drawn) [comparative example, N-{3-[5-(6-Amino-purin-9-yl)-3,4-dihydroxy-tetrahydro-furan-2-yl]-allyl}-2,3-dihydroxy-5-nitro-benzamide, reference compound], which IC50 is on record?
**A.** The IC50 was 9 nM.

system: not given; test: not given; conditions: not given

**Q.** With Nc1ncnc2c1ncn2[C@@H]1O[C@H](/C=C/CNC(=O)c2cccc(O)c2O)C(O)C1O (stereo in doubt) [Example 1, N1-{(E)-3-[(3aR,4R,6R,6aR)-5-(6-amino-9H-purin-9-yl)-3,4-dihydroxytetrahydrofuran-2-yl]prop-2-enyl}-2,3-dihydroxy-benzamide] as the molecule, how does the melting point read?
**A.** Its melting point is 134 °C (dec.).

**Q.** Which melting point does the source give for Nc1ncnc2c1ncn2[C@@H]1O[C@H](/C=C/CNC(=O)c2cc(Br)cc(O)c2O)C(O)C1O (stereo in doubt) [Example 2, N1-{(E)-3-[(3aR,4R,6R,6aR)-5-(6-amino-9H-purin-9-yl)-3,4-dihydroxytetrahydrofuran-2-yl]prop-2-enyl}-5-bromo-2,3-dihydroxy-benzamide] here?
**A.** The melting point was 123 °C (dec.).

**Q.** For Nc1ncnc2c1ncn2[C@@H]1O[C@H](/C=C/CNC(=O)c2cc(-c3ccncc3)cc(O)c2O)C(O)C1O (stereo in doubt) [Example 12, N1-{(E)-3-[(3aR,4R,6R,6aR)-5-(6-amino-9H-purin-9-yl)-3,4-dihydroxytetrahydrofuran-2-yl]prop-2-enyl}-5-pyridin-4-yl-2,3-dihydroxy-benzamide], which melting point is on record?
**A.** The melting point was 133 to 137 °C (dec.).
